Data from patent US6737383B1, “Herbicidal oxadiazolidines” (priority 1999, dated 2004).

Key:
duck salad = assay: Test B flood test duck salad; type: in vivo, Heteranthera limosa
Summary of the method: (§1)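 Read-out is a visual response score from 0 (no effect) to 10 (complete control), assigned by comparison with untreated controls. Treatment was applied at the 2-leaf stage, and plants stayed in the greenhouse for twelve to sixteen days before scoring.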

bedstraw = assay: Test B pre/postemergence bedstraw; type: in vivo, Galium aparine; conditions: for Bedstraw plant response rating (0 to 10 scale): 0 is no effect
Summary of the method: (§2)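 Response is a visual 0-to-10 score relative to untreated plants, where 0 means no effect and 10 means complete control, taken twelve to sixteen days after application. Treatments went onto soil at planting and onto foliage of 1- to 4-leaf plants, using a surfactant-containing non-phytotoxic solvent.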

wheat = assay: Test B pre/postemergence wheat; type: in vivo, Triticum aestivum; conditions: for Wheat plant response rating (0 to 10 scale): 0 is no effect
Summary of the method: as §2

rice = assay: Test B flood test rice; type: in vivo, Oryza sativa
Summary of the method: as §1

[1] = Postemergence (flood test species), Rate 125 g/ha, scale of 0 to 10 where 0 is no effect and 10 is complete control
[2] = Rate 62 g/ha, Postemergence section, flood test species, scale of 0 to 10 where 0 is no effect and 10 is complete control
[3] = Rate 250 g/ha, Postemergence (flood test), scale 0 to 10, 0 is no effect, 10 is complete control
[4] = Rate 250 g/ha, Pre-emergence, flood-test species, scale 0 to 10, 0 is no effect, 10 is complete control
[5] = Rate 500 g/ha, headed Pre-emergence (flood test species), scale 0 to 10 (0 no effect, 10 complete control)
[6] = Rate 500 g/ha, listed under Postemergence (flood test species), scale 0 to 10
[7] = Rate 1000 g/ha, Pre-emergence (as headed), scale 0 to 10
[8] = Rate 2000 g/ha, Pre-emergence (as headed), scale 0 to 10
[9] = Postemergence, Rate 125 g/ha, scale of 0 to 10 where 0 is no effect and 10 is complete control
[10] = Preemergence, Rate 62 g/ha, scale 0 to 10 (0 no effect, 10 complete control)
[11] = Preemergence, Rate 125 g/ha, 10 is complete control
[12] = Preemergence, Rate 250 g/ha, scale 0 to 10, 0 is no effect, 10 is complete control
[13] = Preemergence, Rate 500 g/ha, scale 0 to 10 (0 no effect, 10 complete control)
[14] = Rate 62 g/ha, Postemergence, scale of 0 to 10 where 0 is no effect and 10 is complete control
[15] = Rate 250 g/ha, Postemergence, scale 0 to 10, 0 is no effect, 10 is complete control
[16] = Rate 500 g/ha, Postemergence, scale 0 to 10
[17] = Preemergence, Rate 62 g/ha, scale of 0 to 10 where 0 is no effect and 10 is complete control
[18] = Rate 31 g/ha, Pre-emergence section (flood test species), scale 0 to 10
[19] = Rate 62 g/ha, headed Pre-emergence (flood test species), scale 0 to 10 (0 no effect, 10 complete control)
[20] = Rate 125 g/ha, Pre-emergence, flood test species, scale 0 to 10 where 0 is no effect and 10 is complete control
[21] = Preemergence, Rate 31 g/ha, visual rating, scale 0 to 10 (0 no effect, 10 complete control)
[22] = Rate 125 g/ha, Postemergence, scale 0 to 10
[23] = Rate 500 g/ha, Pre-emergence, flood test species, scale 0 to 10 (0 no effect, 10 complete control)
[24] = Preemergence, Rate 500 g/ha, scale of 0 to 10 where 0 is no effect and 10 is complete control

C=CCn1c(=O)on(C(=O)N(c2ccc(F)cc2)C2CC2)c1=O [Compound 154]
0: Ducksalad plant response rating (duck salad; [1]) | Ducksalad plant response rating (duck salad; [2]) | Plant response rating, Ducksalad (duck salad; [3]) | Ducksalad plant response rating (duck salad; [4]) | Plant response rating, Ducksalad (duck salad; [5]) | Ducksalad plant response rating (duck salad; [6]) | Ducksalad plant response rating (duck salad; [7]) | Ducksalad plant response rating (duck salad; [8]) | Bedstraw plant response rating (bedstraw; [9]) | Bedstraw plant response rating (bedstraw; [10]) | Bedstraw plant response rating (0 to 10 scale) (bedstraw; [11]) | Bedstraw plant response rating (bedstraw; [12]) | Bedstraw plant response rating (bedstraw; [13]) | Bedstraw plant response rating (bedstraw; [14]) | Plant response rating, Bedstraw (bedstraw; [15]) | Wheat plant response rating (wheat; [10]) | Wheat plant response rating (0 to 10 scale) (wheat; [11]) | Wheat plant response rating (wheat; [12]) | Wheat plant response rating (wheat; [13]) | Wheat plant response rating (wheat; [14]) | Plant response rating, Wheat (wheat; [15]) | Wheat plant response rating (wheat; [16]) | Rice plant response rating (rice; [1]) | Rice plant response rating (rice; [2]) | Plant response rating, Rice (rice; [3]) | Rice plant response rating (rice; [4]) | Plant response rating, Rice (rice; [5]) | Rice plant response rating (rice; [6]) | Rice plant response rating (rice; [7]) | Rice plant response rating (rice; [8])

Cc1nsc(C)c1-n1c(=O)on(C(=O)N(c2ccc(Cl)cc2)C(C)C)c1=O [Compound 159]
0: Ducksalad plant response rating (duck salad; [1]) | Ducksalad plant response rating (duck salad; [2]) | Plant response rating, Ducksalad (duck salad; [3]) | Ducksalad plant response rating (duck salad; [6]) | Bedstraw plant response rating (bedstraw; [9]) | Bedstraw plant response rating (bedstraw; [17]) | Bedstraw plant response rating (0 to 10 scale) (bedstraw; [11]) | Bedstraw plant response rating (bedstraw; [12]) | Bedstraw plant response rating (bedstraw; [13]) | Bedstraw plant response rating (bedstraw; [14]) | Plant response rating, Bedstraw (bedstraw; [15]) | Bedstraw plant response rating (bedstraw; [16]) | Wheat plant response rating (wheat; [17]) | Wheat plant response rating (0 to 10 scale) (wheat; [11]) | Wheat plant response rating (wheat; [12]) | Wheat plant response rating (wheat; [13]) | Plant response rating, Wheat (wheat; [15]) | Wheat plant response rating (wheat; [16]) | Rice plant response rating (rice; [1]) | Rice plant response rating (rice; [2]) | Plant response rating, Rice (rice; [3]) | Rice plant response rating (rice; [6])

Cc1ccccc1-n1c(=O)on(C(=O)N(c2ccc(F)cc2)C2CCC2)c1=O [Compound 200]
0: Ducksalad plant response rating (duck salad; [18]) | Ducksalad plant response rating (duck salad; [19]) | Ducksalad plant response rating (duck salad; [20]) | Ducksalad plant response rating (duck salad; [4]) | Bedstraw plant response rating (bedstraw; [21]) | Bedstraw plant response rating (bedstraw; [12]) | Bedstraw plant response rating (bedstraw; Rate 31 g/ha, Postemergence, scale 0 to 10) | Bedstraw plant response rating (bedstraw; [14]) | Bedstraw plant response rating (bedstraw; [22]) | Plant response rating (0 to 10; 0 is no effect, 10 is complete control), Bedstraw (bedstraw; Rate 250 g/ha, Postemergence) | Wheat plant response rating (wheat; [21]) | Wheat plant response rating (wheat; [17]) | Wheat plant response rating (wheat; [12]) | Wheat plant response rating (wheat; [14]) | Wheat plant response rating (wheat; [22]) | Plant response rating (0 to 10; 0 is no effect, 10 is complete control), Wheat (wheat; Rate 250 g/ha, Postemergence) | Rice plant response rating (rice; [18]) | Rice plant response rating (rice; [19]) | Rice plant response rating (rice; [20]) | Rice plant response rating (rice; [4])

CC(C)N(C(=O)n1oc(=O)n(Cc2ccco2)c1=O)c1ccc(Cl)cc1 [Compound 206]
0: Ducksalad plant response rating (duck salad; [19]) | Ducksalad plant response rating (duck salad; [20]) | Ducksalad plant response rating (duck salad; [4]) | Ducksalad plant response rating (duck salad; [23]) | Bedstraw plant response rating (bedstraw; [17]) | Bedstraw plant response rating (0 to 10 scale) (bedstraw; [11]) | Bedstraw plant response rating (bedstraw; [12]) | Plant response rating, Bedstraw (bedstraw; [24]) | Bedstraw plant response rating (bedstraw; [14]) | Bedstraw plant response rating (bedstraw; [22]) | Plant response rating (0 to 10; 0 is no effect, 10 is complete control), Bedstraw (bedstraw; Rate 250 g/ha, Postemergence) | Bedstraw plant response rating (bedstraw; [16]) | Wheat plant response rating (wheat; [17]) | Wheat plant response rating (wheat; [12]) | Plant response rating, Wheat (wheat; [24]) | Wheat plant response rating (wheat; [14]) | Wheat plant response rating (wheat; [22]) | Plant response rating (0 to 10; 0 is no effect, 10 is complete control), Wheat (wheat; Rate 250 g/ha, Postemergence) | Rice plant response rating (rice; [19]) | Rice plant response rating (rice; [20]) | Rice plant response rating (rice; [4]) | Rice plant response rating (rice; [23])
